# Measurements taken from US20120270237A9, “METHODS FOR THE IDENTIFICATION OF KINASE INTERACTING MOLECULES AND FOR THE PURIFICATION OF KINASE PROTEINS” (Cellzone AG, priority 2009, published 2012).
# Assays:
# Test in all cases: Kinobeads competition binding, HeLa Placenta lysate mix
# Parameters in all cases: endogenous in cells
# Conditions in all cases: 10 μM free compound
# AAK1 = AAK1 (Homo sapiens, UniProt Q2M2I8)
# Procedure, shortened: (§1)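 Two lysate aliquots, one given 10 μM compound and one DMSO, are each captured on compound-derivatized beads. Eluates are gel-separated, trypsinized, iTRAQ-labeled and combined for tandem MS quantification.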
# AurA = molecular target: T1, AurA (Homo sapiens, UniProt O14965)
# T1 sequence (O14965 1-403): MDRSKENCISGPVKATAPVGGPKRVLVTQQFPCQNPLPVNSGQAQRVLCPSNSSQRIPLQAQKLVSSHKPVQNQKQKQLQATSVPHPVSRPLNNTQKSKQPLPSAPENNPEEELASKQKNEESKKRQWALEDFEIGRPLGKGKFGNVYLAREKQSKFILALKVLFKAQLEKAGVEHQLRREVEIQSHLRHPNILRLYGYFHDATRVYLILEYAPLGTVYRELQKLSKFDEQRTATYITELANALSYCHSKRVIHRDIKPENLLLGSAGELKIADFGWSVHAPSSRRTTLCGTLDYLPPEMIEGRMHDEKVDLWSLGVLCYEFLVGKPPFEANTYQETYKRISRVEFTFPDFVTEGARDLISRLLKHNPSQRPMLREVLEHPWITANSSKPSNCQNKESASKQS
# Procedure, shortened: as §1
# BIKE = BIKE (Homo sapiens, UniProt Q9NSY1)
# Sequence of BIKE (Q9NSY1 whole entry): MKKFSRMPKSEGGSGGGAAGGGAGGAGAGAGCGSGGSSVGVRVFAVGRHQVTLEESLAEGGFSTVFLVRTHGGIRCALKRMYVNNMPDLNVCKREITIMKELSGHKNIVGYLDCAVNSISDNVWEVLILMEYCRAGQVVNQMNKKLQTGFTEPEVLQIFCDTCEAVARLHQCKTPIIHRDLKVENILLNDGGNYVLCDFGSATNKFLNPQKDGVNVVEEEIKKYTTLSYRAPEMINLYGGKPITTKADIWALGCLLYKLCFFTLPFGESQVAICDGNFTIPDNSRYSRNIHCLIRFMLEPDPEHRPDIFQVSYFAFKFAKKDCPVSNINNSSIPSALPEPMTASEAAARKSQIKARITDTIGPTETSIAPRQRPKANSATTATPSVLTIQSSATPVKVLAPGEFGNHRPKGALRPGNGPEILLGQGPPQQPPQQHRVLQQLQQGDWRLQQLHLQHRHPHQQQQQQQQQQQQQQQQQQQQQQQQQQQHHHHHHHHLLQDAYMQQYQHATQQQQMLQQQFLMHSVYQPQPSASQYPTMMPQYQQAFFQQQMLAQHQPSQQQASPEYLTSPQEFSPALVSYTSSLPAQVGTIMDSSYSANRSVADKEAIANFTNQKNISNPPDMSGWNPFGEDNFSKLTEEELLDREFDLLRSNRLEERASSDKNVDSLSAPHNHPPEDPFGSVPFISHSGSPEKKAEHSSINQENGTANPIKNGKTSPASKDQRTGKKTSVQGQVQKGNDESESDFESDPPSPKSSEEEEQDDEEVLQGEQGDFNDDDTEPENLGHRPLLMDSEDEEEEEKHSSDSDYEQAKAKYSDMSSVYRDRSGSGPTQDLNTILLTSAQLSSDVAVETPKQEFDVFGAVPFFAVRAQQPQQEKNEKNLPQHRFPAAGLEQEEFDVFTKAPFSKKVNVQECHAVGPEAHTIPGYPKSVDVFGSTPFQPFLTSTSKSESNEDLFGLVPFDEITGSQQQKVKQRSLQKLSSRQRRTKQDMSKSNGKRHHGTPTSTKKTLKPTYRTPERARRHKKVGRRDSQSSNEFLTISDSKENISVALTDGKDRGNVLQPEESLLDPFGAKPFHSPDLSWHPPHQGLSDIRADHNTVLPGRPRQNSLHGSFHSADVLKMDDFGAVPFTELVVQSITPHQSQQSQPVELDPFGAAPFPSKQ
# Procedure, shortened: as §1
# CDK5 = CDK5 (Homo sapiens, UniProt Q00535)
# Sequence of CDK5 (Q00535 whole entry): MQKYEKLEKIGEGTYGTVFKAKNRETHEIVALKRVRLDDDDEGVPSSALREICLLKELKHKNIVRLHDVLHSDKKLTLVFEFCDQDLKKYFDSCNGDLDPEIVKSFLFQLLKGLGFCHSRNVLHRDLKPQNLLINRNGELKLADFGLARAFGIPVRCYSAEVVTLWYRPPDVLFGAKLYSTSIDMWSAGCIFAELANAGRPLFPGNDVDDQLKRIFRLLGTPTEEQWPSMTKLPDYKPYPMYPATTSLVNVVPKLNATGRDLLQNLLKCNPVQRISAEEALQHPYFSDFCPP
# Procedure, shortened: as §1
# CK2a1 = CK2a1 (Homo sapiens, UniProt P68400)
# Sequence of CK2a1 (P68400 whole entry): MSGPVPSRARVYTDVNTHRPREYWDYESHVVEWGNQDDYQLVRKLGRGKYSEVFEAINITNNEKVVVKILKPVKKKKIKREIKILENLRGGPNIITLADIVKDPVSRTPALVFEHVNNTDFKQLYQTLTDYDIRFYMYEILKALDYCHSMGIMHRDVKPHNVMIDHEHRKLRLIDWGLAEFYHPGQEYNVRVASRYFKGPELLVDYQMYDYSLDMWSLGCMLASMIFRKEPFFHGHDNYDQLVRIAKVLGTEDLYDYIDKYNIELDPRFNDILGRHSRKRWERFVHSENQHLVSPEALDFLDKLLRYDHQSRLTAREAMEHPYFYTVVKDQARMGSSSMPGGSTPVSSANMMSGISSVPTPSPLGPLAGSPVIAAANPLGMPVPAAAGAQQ
# Procedure, shortened: as §1
# DNAPK = DNAPK (Homo sapiens, UniProt P78527)
# Procedure, shortened: as §1
# Erk1 = Erk1 (Homo sapiens, UniProt P27361)
# Sequence of Erk1 (P27361 whole entry): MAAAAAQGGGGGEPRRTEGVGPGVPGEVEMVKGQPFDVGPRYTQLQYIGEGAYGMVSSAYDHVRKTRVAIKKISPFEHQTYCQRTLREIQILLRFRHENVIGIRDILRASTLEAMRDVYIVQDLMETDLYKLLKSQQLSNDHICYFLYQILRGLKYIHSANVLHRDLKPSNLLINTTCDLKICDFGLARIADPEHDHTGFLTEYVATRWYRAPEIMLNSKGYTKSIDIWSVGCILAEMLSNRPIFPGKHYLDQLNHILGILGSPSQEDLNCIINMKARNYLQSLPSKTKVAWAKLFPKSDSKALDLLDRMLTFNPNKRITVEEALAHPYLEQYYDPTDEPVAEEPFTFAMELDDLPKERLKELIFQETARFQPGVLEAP
# Procedure, shortened: as §1
# IRAK3 = IRAK3 (Homo sapiens, UniProt Q9Y616)
# Sequence of IRAK3 (Q9Y616 whole entry): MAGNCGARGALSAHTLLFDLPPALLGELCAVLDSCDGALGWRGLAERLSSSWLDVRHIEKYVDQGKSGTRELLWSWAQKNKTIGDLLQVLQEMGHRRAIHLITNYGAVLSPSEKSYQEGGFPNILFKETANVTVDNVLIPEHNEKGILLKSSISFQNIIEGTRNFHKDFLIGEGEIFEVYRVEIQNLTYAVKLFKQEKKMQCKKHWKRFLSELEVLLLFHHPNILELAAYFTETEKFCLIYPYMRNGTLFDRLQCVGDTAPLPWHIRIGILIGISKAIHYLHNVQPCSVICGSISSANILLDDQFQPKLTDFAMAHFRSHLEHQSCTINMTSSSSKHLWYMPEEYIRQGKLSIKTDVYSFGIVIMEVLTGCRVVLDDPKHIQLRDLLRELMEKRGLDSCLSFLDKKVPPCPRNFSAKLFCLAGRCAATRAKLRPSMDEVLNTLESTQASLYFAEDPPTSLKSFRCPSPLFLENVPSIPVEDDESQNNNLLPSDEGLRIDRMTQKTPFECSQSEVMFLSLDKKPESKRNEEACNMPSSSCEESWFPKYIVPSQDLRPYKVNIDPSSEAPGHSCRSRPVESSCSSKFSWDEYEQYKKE
# Procedure, shortened: as §1
# LYN = LYN (Homo sapiens, UniProt P07948)
# Procedure, shortened: as §1
# MAP2K6 = MAP2K6 (Homo sapiens, UniProt P52564)
# Sequence of MAP2K6 (P52564 whole entry): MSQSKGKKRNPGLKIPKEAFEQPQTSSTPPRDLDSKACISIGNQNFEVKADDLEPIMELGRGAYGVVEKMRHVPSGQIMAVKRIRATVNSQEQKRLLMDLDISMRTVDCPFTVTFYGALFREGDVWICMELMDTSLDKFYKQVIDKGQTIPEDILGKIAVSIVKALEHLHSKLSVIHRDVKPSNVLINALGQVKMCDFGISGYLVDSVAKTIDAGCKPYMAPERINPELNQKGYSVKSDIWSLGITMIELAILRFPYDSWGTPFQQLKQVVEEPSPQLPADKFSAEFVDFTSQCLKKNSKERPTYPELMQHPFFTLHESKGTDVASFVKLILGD
# Procedure, shortened: as §1
# MAP3K2 = molecular target: T2, MAP3K2 (Homo sapiens, UniProt Q9Y2U5)
# T2 sequence (Q9Y2U5 1-619): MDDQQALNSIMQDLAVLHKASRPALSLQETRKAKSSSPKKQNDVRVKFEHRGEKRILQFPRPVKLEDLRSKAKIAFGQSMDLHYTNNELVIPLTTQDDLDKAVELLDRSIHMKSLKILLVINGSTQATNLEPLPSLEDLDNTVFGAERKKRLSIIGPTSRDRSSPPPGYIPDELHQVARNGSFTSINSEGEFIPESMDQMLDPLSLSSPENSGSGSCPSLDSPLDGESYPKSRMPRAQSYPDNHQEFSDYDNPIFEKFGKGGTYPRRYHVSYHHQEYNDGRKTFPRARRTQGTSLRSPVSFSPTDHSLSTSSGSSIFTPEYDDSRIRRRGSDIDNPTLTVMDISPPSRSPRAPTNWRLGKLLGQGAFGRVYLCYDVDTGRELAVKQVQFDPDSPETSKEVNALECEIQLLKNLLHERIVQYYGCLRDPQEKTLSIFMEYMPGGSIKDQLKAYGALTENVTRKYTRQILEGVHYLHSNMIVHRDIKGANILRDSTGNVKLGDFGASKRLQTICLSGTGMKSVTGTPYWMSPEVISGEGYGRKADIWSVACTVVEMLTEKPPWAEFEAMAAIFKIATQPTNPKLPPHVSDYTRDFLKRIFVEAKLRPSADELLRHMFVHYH
# Procedure, shortened: as §1
# PAK4 = PAK4 (Homo sapiens, UniProt O96013)
# Sequence of PAK4 (O96013 whole entry): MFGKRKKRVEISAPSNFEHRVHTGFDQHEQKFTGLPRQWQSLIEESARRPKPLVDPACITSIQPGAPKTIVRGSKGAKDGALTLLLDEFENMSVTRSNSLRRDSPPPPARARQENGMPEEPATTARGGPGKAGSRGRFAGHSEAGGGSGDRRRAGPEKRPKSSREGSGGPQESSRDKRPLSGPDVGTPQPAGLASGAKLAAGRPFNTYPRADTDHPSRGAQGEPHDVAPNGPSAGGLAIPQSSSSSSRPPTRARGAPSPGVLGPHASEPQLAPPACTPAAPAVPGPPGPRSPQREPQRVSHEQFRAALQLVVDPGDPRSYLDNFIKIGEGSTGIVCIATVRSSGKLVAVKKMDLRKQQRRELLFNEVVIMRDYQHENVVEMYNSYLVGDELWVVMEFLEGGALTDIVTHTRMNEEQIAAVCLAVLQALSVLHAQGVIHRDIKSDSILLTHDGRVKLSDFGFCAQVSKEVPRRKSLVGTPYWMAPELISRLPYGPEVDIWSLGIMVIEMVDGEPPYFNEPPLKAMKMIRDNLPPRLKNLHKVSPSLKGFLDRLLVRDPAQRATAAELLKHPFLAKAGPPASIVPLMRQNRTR
# Procedure, shortened: as §1
# TYK2 = TYK2 (Homo sapiens, UniProt P29597)
# Sequence of TYK2 (P29597 whole entry): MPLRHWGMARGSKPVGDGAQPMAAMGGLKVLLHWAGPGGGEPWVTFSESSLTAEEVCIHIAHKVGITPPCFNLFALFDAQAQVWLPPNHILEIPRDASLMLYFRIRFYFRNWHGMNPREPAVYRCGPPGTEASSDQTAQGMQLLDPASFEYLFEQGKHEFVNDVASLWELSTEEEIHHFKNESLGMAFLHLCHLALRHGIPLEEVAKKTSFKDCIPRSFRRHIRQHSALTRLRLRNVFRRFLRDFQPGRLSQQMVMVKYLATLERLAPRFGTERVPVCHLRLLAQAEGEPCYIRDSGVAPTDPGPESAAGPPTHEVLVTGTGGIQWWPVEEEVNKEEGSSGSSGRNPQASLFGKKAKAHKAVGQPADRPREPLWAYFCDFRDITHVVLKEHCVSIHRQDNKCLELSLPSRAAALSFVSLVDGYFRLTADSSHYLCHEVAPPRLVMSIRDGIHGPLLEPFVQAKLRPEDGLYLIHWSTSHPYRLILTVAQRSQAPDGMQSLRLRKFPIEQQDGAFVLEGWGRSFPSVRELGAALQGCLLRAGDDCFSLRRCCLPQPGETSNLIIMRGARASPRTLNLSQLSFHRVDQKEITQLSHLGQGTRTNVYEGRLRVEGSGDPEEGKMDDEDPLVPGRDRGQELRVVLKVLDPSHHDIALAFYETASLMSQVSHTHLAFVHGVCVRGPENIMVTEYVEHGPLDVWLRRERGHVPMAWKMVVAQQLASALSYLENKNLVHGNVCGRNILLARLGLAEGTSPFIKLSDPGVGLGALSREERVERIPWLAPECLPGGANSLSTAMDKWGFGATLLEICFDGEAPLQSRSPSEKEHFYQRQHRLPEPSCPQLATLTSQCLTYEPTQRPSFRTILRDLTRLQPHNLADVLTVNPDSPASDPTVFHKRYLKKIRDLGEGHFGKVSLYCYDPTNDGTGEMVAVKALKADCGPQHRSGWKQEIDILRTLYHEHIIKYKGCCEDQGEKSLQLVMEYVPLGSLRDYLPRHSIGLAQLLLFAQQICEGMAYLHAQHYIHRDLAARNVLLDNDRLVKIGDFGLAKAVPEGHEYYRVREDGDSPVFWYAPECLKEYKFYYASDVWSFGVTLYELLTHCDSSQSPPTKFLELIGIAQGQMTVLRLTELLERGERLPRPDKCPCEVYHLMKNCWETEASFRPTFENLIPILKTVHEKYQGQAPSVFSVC
# Procedure, shortened: as §1
smiles,measurement,setting,value
"CS(=O)(=O)Nc1ccccc1Nc1nc(Nc2cccc(OCCN)c2)ncc1Cl [CZC31326, N-(2-(2-(3-(2-aminoethoxy)phenylamino)-5-chloropyrimidin-4-ylamino)phenyl)methanesulfonamide]",inhibition at 10 µM,AAK1,94.5%
same,inhibition at 10 µM,AurA,94%
same,inhibition at 10 µM,BIKE,92.9%
same,inhibition at 10 µM,CDK5,92.6%
same,inhibition at 10 µM,CK2a1,94.6%
same,inhibition at 10 µM,DNAPK,69.2%
same,inhibition at 10 µM,Erk1,77.8%
same,inhibition at 10 µM,IRAK3,92%
same,inhibition at 10 µM,LYN,76.1%
same,inhibition at 10 µM,MAP2K6,89.2%
same,inhibition at 10 µM,MAP3K2,93.9%
same,inhibition at 10 µM,PAK4,94.2%
same,Competition %,TYK2,93.8%
